One data set relates to THP-1 cells. The arrangement: method as in SAR previously reported. Conditions: ref SAR previously reported; cited from earlier work.
Data set [1] has as its system glycogen synthase kinase-3 (GSK-3). The arrangement: method as in earlier work. The following applies: ref previous screening of potential GSK-3 inhibitors among the Leishbox; cited from earlier work.
Another data set in a line: Kinetic solubility. Type of data set: physicochemical. Conditions: PBS, 25 °C, kinetic from dmso stock. Here is the method: The analysis was performed using LC-MS/MS (liquid chromatography-tandem mass spectrometry). The LC-MS/MS system used consisted of a Prominence UFLC (Shimadzu Corporation, Kyoto, Japan) chromatography system, interfaced with a LCMS-8045 triple quadrupole mass spectrometer (Shimadzu Corporation, Kyoto, Japan) equipped with an electrospray ionization source (ESI).
PBS pH 7.4 or 2.0 (final concentration of 250 μM) was added to each well of the plates, and the DMSO concentration was kept lower than 2.5%. The plates were sealed and shaken for 24 h (200 rpm/25 °C). The precipitates on the incubation plate were removed by centrifugation (15 min/3000 rpm/25 °C), and the supernatant fractions were quantified by LC-MS/MS. An intermediate standard solution diluted at 0.5 mM in acetonitrile:water (1:1) was prepared from a 10 mM standard solution. A calibration curve was prepared for each of the test compounds and controls by diluting several times the intermediate standard solution to reach the desired concentrations of 50, 40, 20, 2, and 1 μM. The resulting equation for the calibration curve (y = mx + b) was used to calculate the experimental concentration values for the compounds. The chromatogram for analysis was achieved on a Supelco Ascentis express C18 column (3 cm x 2.1 mm, […]), using water +0.05% formic acid (A) and acetonitrile +0.05% formic acid (B) as mobile phases. […]

Data set [2] can be described thus: Hepatotoxicity in HepG2 cells (MTS). Type of data set: cell-based. Conditions: human, read-out: CC50 against HepG2 cells. Here is the method: HepG2 cells were seeded at 2 × 10^4 cells/mL in DMEM, the plates were incubated for 24 h (5% CO2, 37 °C) and the compounds and doxorubicin (used as a positive control) were added in serial dilutions. After 72 h incubation, 15 μL of MTS reagent (CellTiter96) was added to each well, and the plates were incubated for 4 h then read using a microplate absorbance reader at 490 nm. Growth inhibition was expressed as a percentage of the absorbance of the negative control wells.

Data set [3] has as its system L. infantum::tdTomato intracellular amastigotes. The data set can be described thus: Synergism between 2 and Sb^III against intracellular L. infantum amastigotes. Type of data set: cell-based, Leishmania infantum. Here is the method: Cells derived from the human monocytic strain THP-1 were cultured in complete Rowell Park Memorial Institute (RPMI)-1640 medium (supplemented with 10% fetal bovine serum, 100 U/mL penicillin, and 100 μg/mL streptomycin). Monocytes were differentiated into macrophages by the addition of 20 ng/mL phorbol myristate acetate (PMA). After 72 h, the macrophages (5 × 10^4), in black 96-well microtiter plates (Corning Incorporated, Corning, NY), were infected with Leishmania (Leishmania) infantum (MHOM/BR/1974/PP75) promastigotes expressing red fluorescence protein on the second day of the stationary phase (20 parasites per macrophage) for 4 h. […] To investigate the possibility of synergism between Sb^III and compound 2, […] different concentrations of these drugs were used (1.0, 0.5, 0.2, 0.1, and 0.05 μg/mL), the solutions of Sb^III and 2 being prepared and diluted the day of the assay. The compounds were tested separately and in combination. […] The EC50 values were determined by nonlinear regression using a Variable slope model (log(concentration) vs growth inhibition) with the GraphPadPrism v8.2.0 (CA, USA) software. By normalizing the data as a fractional response, it was possible to perform the calculation using a Bayesian model. The results were compared to each other to determine whether the combination of compounds has a synergistic, antagonistic or additive effect. Controls with uninfected cells, untreated infected cells, infected cells treated with amphotericin B at 0.25 μM (positive control) or DMSO 1% were used. Quadruplicates were run on the same plate, and the experiments were repeated at least once.

Data set [4] relates to L. infantum promastigotes. The data set can be described thus: Reactive oxygen species production assay (H2DCFDA). Type of data set: cell-based, Leishmania infantum. Conditions: at IC50 against promastigotes, 24 h; standard 100 μM H2O2. As to the method: The fluorescent dye H2DCFDA was employed to evaluate ROS production. […] After treatment, the parasites were harvested, washed three times with 1 × PBS, and incubated with 10 μM H2DCFDA dye in […] of 1 × PBS in the dark at room temperature for 30 min. Subsequently, the cells were centrifugated, resuspended in ice-cold PBS and kept at 0 °C until reading on a SpectraMax Gemini XPS/EM microplate reader. The median fluorescence intensity (MIF) was measured on a population of at least ten thousand cells and the data was further analyzed using Excel 2021.

The next data set relates to L. braziliensis DHODH. Description: DHODH inhibition assay (DCIP). The following applies: 100 μM. Type of data set: biochemical, Leishmania braziliensis. As to the method: The inhibition assay was conducted under the following conditions: 50 mM Tris (pH 8.15), 150 mM KCl, 50 μM DHO, 60 μM DCIP, and 0.1% Triton X-100. 2 was assayed in triplicate at a concentration of 100 μM, using 5% (v/v) DMSO to prepare stock solutions. The reaction was initiated by adding the enzyme, reaching a final enzyme concentration of 165 nM. Enzymatic activity was then measured for 60 s at 610 nm using a microplate reader (SpectraMax Plus 384, Molecular Devices, San Jose, CA, USA) at 25 °C. The uninhibited reaction, containing 5% (v/v) DMSO, was used as a positive control (100% activity).

The test system of the next data set is BALB/c mice. The data set can be described thus: Acute toxicity / maximum tolerated dose in uninfected mice. Type of data set: in vivo, mouse. Conditions: intraperitoneal, accumulated dose 100 mg/kg, 24 h after last dose. Here is the method: The maximum tolerated dose (MTD) of 2 was determined in BALB/c mice. One male and one female specimen, uninfected, 6 weeks old (ideal weight: 20 g), were each administered intraperitoneally an emulsified sample prepared with 70% PBS1X, 20% PEG 400 (Polyethylene glycol 400, Sigma-Aldrich), 0.16% Tween 80 and 10% of 2, with an initial dose of 5 mg/kg of 2. After 2 h, an additional dose of 15 mg/kg was administered (resulting in an accumulated dose (AD) of 20 mg/kg). After another 2 h, a new dose of 30 mg/kg was administered (AD = 50 mg/kg). After a further 2 h, a final dose of 50 mg/kg (AD = 100 mg/kg) was administered.

The source of these data is article PMC12384620, “Hit-to-Lead Studies of Pyrazinylpiperazines against Visceral Leishmaniasis: Pharmacokinetic Profile and In Vivo Efficacy of Potent Compounds against Leishmania infantum” (ACS Pharmacology & Translational Science, 2025).

Values after ≈ are worked out from the molar mass of the structure shown. Bounds are passed on as bounds.

Turning to `O=C(c1ccc(O)c(Cl)c1)N1CCN(c2cnccn2)CC1` [Compound 1, (3-Chloro-4-hydroxyphenyl)(4-(pyrazin-2-yl)piperazin-1-yl)methanone], the cytotoxic concentration (CC50) (usually the concentration that lowers cell viability or growth by half) in the data set on THP-1 cells was 542 µM. The GSK-3 inhibition result in data set [1] is recorded as “did not inhibit”.

Regarding `O=C(c1ccc(O)cc1)N1CCN(c2cnccn2)CC1` [Compound 2, (4-Hydroxyphenyl)(4-(pyrazin-2-yl)piperazin-1-yl)methanone], the solubility (kinetic) (commonly the concentration staying in solution when a stock, usually in DMSO, is diluted into the medium) at 24 h is 125 µM (≈ 35.6 µg/mL) in the data set “Kinetic solubility” (aqueous buffer, pH 2.0) and > 153 µM in “Kinetic solubility” (pH 7.4, aqueous buffer). Moreover, the cytotoxic concentration (CC50) at 72 h in data set [2] was > 64 µM. For the same compound, the half-maximal inhibitory concentration (IC50) (as a rule, the concentration needed to halve the response being measured) in data set [3] (Leishmania infantum, 72 h, read-out: IC50 against intracellular amastigotes of L. infantum) was 3.1 ± 1.3 µM. Further, the “effect of the combination of 2 and Sb^III (Bayesian model)” value in data set [3] (combination of 2 with Sb^III, in vitro against L. infantum) is on record as “antagonistic”. Further, the ROS production entry in data set [4] is recorded as “comparable to that of the standard H2O2”. Also, in the data set with L. braziliensis DHODH, the “inhibition of DHODH” value was “less than 25%”. In addition, the “signs of acute toxicity (MTD determination)” value in the data set with BALB/c mice is given as “no apparent signs of acute toxicity”.
